Test results published in PubChem BioAssay AID2060326 (Molecular Pharmacology Branch, DTP, NCI, 2025).
Several values for one entry are separate records, joined by “and”; a condition that tells them apart may be missing. Identical values can stand only once. Each block holds one molecule with its values, some of them ahead of it.

Tested on: MDA-MB-468 multi-cell spheroids, viability
Assay: Anticancer human tumor MDA-MB-468 cell line growth inhibition [IpAb];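 note: spheroids exposed to agents for seven days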;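 for viability, T/C: 100% = DMSO vehicle control viability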
Details: for viability, T/C: stronger effect = lower value
From the text: Combinatorial screen of targeted agents with ipatasertib and abemaciclib in multi-cell type tumor spheroids
A high-throughput screen of multi-cell type tumor spheroids was designed to identify active combinations of targeted small molecules and ipatasertib or abemaciclib. Complex spheroids include a stromal component modeled by human endothelial cells (HUVEC) and fibroblasts modeled by human mesenchymal stem cells (MSCs). The concentration ranges selected for each drug and investigational agent were based upon clinically achievable concentrations if the clinical Cmax of the agent was known.
Compounds. The drugs and investigational agents: ipatasertib (NSC767898), abemaciclib(NSC768073), selumetinib (NSC741078), trametinib (758246), adavosertib (NSC754352), everolimus (NSC733504), sapanisertib (NSC764658), vemurafenib (NSC761431), venetoclax (NSC766270), copanlisib (NSC809693), apelisib (NSC765974), palbociblib (NSC758247), vemurafenib (NSC761431), dabrafenib (NSC764134), ravoxertinib (NSC781343), BMS-387032 (NSC767048), sotorasib (NSC818433), talazoparib (NSC767125) and afursertib (NSC778305), were obtained from the National Cancer Institute (NCI) Developmental Therapeutics Program Chemical Repository. The FDA-approved anticancer drug set is available from the NCI Developmental Therapeutics Program. […] The stock solutions were prepared in dimethyl sulfoxide (DMSO, Sigma-Aldrich, St. Louis, MO, cat. D2650) at 800-fold the tested concentration and stored at -70 degrees C prior to their use. All drugs and investigational agents were tested over a range starting from a high concentration at or near the clinical Cmax and decreasing in half-log increments. If the clinical Cmax for an agent had not been determined, the highest concentration tested was 10 microM.
NCI60 Cell Culture. NCI60 cell lines were obtained from the NCI Developmental Therapeutics Program Tumor Repository. For each lot of cells, the Repository performed Applied Biosystems AmpFLSTR Identifiler testing with PCR amplification to confirm consistency with the published Identifier STR profile for each cell line. Cells were kept in continuous culture for no more than 20 passages. The optimal seeding densities for each of the cell lines at each time point assessed were determined prior to performing the concentration response studies. Briefly, the NCI60 human tumor lines were grown as monolayers in RPMI 1640 medium supplemented with 10% FBS and 2 mmol/L L-glutamine.
An additional 9 lines were from the NCI60 cell line panel including MDA-MB-231 breast carcinoma, MDA-MB-468 breast carcinoma, MCF7 breast carcinoma, Hs578T breast carcinoma, MALME-3M melanoma, SK-MEL-2 melanoma, SK-OV-3 ovarian carcinoma, DU-145 prostate carcinoma, PC-3 prostate carcinoma, all cell lines along with major genetic alterations are listed on Table 2. Pooled donor human umbilical vein endothelial cells (HUVEC, Lonza, cat. CC-2519) and human mesenchymal stem cells (hMSC, Lonza, cat. PT-2501) were purchased from Lonza (Walkersville, MD).
PDMR cell lines were grown in complete medium (DC medium): Dulbecco's modified Eagle's medium (DMEM)/F12 supplemented with 5% fetal bovine serum (FBS), 2 mM L-glutamine, 100 U/mL penicillin and 100 µg/ml streptomycin, 0.4 µg/ml hydrocortisone, 10 ng/ml epidermal growth factor (EGF) recombinant human protein, 24 µg/mL adenine, and 0.1 mg/mL primocin. During culture from frozen stock vials, PDMR cells were cultured in the same medium containing 10 µM Y-27632 (see Table 3). The PDCs were cultured in complete DMEM/F12 media without 10 microM Y-27632 dihydrochloride for at least two passages prior to the screen. The pooled donor HUVEC and hMSC were cultured in endothelial cell growth medium 2 (PromoCell, Heidelberg, Germany, cat. C-22011) and mesenchymal stem cell growth medium 2 (PromoCell, cat. C-28009), respectively. For all experiments, HUVEC and hMSC were used at passages </=5.
[…]

[1] = curve of first compound, second compound 0.01 µM
[2] = curve of first compound, second compound 0.0316 µM
[3] = curve of first compound, second compound 0.1 µM
[4] = curve of first compound, second compound 0.316 µM
[5] = curve of first compound, second compound 1 µM

SMILES: Cn1ncc(Cl)c1-c1cc(C(=O)NC(CN)Cc2cccc(F)c2)sc1Cl (stereo not given) + CCN1CCN(Cc2ccc(Nc3ncc(F)c(-c4cc(F)c5nc(C)n(C(C)C)c5c4)n3)nc2)CC1
IC50 [1]: 461 nM
IC50 [2]: 319 nM
IC50 [3]: 318 nM
IC50 [4]: 396 nM
IC50 [5]: 223 nM
viability, T/C (second compound 0.01 µM, first compound 0.0316 µM): 88.4%
viability, T/C (second compound 0.01 µM, first compound 0.1 µM): 74.1%
viability, T/C (second compound 0.01 µM, first compound 0.316 µM): 57.7%
viability, T/C (second compound 0.01 µM, first compound 1 µM): 36.6%
viability, T/C (second compound 0.01 µM, first compound 3.16 µM): 11.8%
viability, T/C (second compound 0.01 µM, first compound 10 µM): 0.13%
viability, T/C (second compound 0.0316 µM, first compound 0.0316 µM): 97.3%
viability, T/C (second compound 0.0316 µM, first compound 0.1 µM): 58.5%
viability, T/C (second compound 0.0316 µM, first compound 0.316 µM): 48%
viability, T/C (second compound 0.0316 µM, first compound 1 µM): 34.1%
viability, T/C (second compound 0.0316 µM, first compound 3.16 µM): 15.1%
viability, T/C (second compound 0.0316 µM, first compound 10 µM): 0.12%
viability, T/C (second compound 0.1 µM, first compound 0.0316 µM): 109%
viability, T/C (second compound 0.1 µM, first compound 0.1 µM): 72%
viability, T/C (second compound 0.1 µM, first compound 0.316 µM): 51.5%
viability, T/C (second compound 0.1 µM, first compound 1 µM): 31.8%
viability, T/C (second compound 0.1 µM, first compound 3.16 µM): 11.2%
viability, T/C (second compound 0.1 µM, first compound 10 µM): 0.11%
viability, T/C (second compound 0.316 µM, first compound 0.0316 µM): 81.2%
viability, T/C (second compound 0.316 µM, first compound 0.1 µM): 72.6%
viability, T/C (second compound 0.316 µM, first compound 0.316 µM): 53.4%
viability, T/C (second compound 0.316 µM, first compound 1 µM): 32.6%
viability, T/C (second compound 0.316 µM, first compound 3.16 µM): 5.2%
viability, T/C (second compound 0.316 µM, first compound 10 µM): 0.11%
viability, T/C (second compound 1 µM, first compound 0.0316 µM): 81.5%
viability, T/C (second compound 1 µM, first compound 0.1 µM): 52.9%
viability, T/C (second compound 1 µM, first compound 0.316 µM): 53.4%
viability, T/C (second compound 1 µM, first compound 1 µM): 26%
viability, T/C (second compound 1 µM, first compound 3.16 µM): 2.78%
viability, T/C (second compound 1 µM, first compound 10 µM): 0.19%

SMILES: CC(C)(C)c1cnc(CSc2cnc(NC(=O)C3CCNCC3)s2)o1 + CCN1CCN(Cc2ccc(Nc3ncc(F)c(-c4cc(F)c5nc(C)n(C(C)C)c5c4)n3)nc2)CC1
IC50 [1]: 105 nM
IC50 [2]: 79.4 nM
IC50 [3]: 115 nM
IC50 [4]: 62.3 nM
IC50 [5]: 42.6 nM
viability, T/C (second compound 0.01 µM, first compound 0.00949 µM): 110%
viability, T/C (second compound 0.01 µM, first compound 0.03 µM): 102%
viability, T/C (second compound 0.01 µM, first compound 0.0949 µM): 55.2%
viability, T/C (second compound 0.01 µM, first compound 0.3 µM): 0.29%
viability, T/C (second compound 0.01 µM, first compound 0.949 µM): 0.19%
viability, T/C (second compound 0.01 µM, first compound 3 µM): 0.31%
viability, T/C (second compound 0.0316 µM, first compound 0.00949 µM): 94.8%
viability, T/C (second compound 0.0316 µM, first compound 0.03 µM): 92%
viability, T/C (second compound 0.0316 µM, first compound 0.0949 µM): 42.3%
viability, T/C (second compound 0.0316 µM, first compound 0.3 µM): 0.24%
viability, T/C (second compound 0.0316 µM, first compound 0.949 µM): 0.19%
viability, T/C (second compound 0.0316 µM, first compound 3 µM): 0.32%
viability, T/C (second compound 0.1 µM, first compound 0.00949 µM): 93.6%
viability, T/C (second compound 0.1 µM, first compound 0.03 µM): 91.7%
viability, T/C (second compound 0.1 µM, first compound 0.0949 µM): 59.9%
viability, T/C (second compound 0.1 µM, first compound 0.3 µM): 0.22%
viability, T/C (second compound 0.1 µM, first compound 0.949 µM): 0.22%
viability, T/C (second compound 0.1 µM, first compound 3 µM): 0.29%
viability, T/C (second compound 0.316 µM, first compound 0.00949 µM): 90.8%
viability, T/C (second compound 0.316 µM, first compound 0.03 µM): 89.8%
viability, T/C (second compound 0.316 µM, first compound 0.0949 µM): 27.1%
viability, T/C (second compound 0.316 µM, first compound 0.3 µM): 0.32%
viability, T/C (second compound 0.316 µM, first compound 0.949 µM): 0.26%
viability, T/C (second compound 0.316 µM, first compound 3 µM): 0.31%
viability, T/C (second compound 1 µM, first compound 0.00949 µM): 85.6%
viability, T/C (second compound 1 µM, first compound 0.03 µM): 70.8%
viability, T/C (second compound 1 µM, first compound 0.0949 µM): 2.25%
viability, T/C (second compound 1 µM, first compound 0.3 µM): 0.45%
viability, T/C (second compound 1 µM, first compound 0.949 µM): 0.35%
viability, T/C (second compound 1 µM, first compound 3 µM): 0.37%

IC50 (curve of compound): > 300 nM
SMILES: CC(=O)c1c(C)c2cnc(Nc3ccc(N4CCNCC4)cn3)nc2n(C2CCCC2)c1=O
viability, T/C (compound 0.000949 µM): 93.7% and 99%
viability, T/C (compound 0.003 µM): 91.4% and 97.5%
viability, T/C (compound 0.00949 µM): 92% and 93.8%
viability, T/C (compound 0.03 µM): 88.1% and 91.8%
viability, T/C (compound 0.0949 µM): 92.4% and 81.4%
viability, T/C (compound 0.3 µM): 90.2% and 73.4%

IC50 (curve of compound): 1560 nM and 1200 nM
SMILES: Cn1cnc2c(F)c(Nc3ccc(Br)cc3Cl)c(C(=O)NOCCO)cc21
viability, T/C (compound 0.00949 µM): 87.3% and 84.9%
viability, T/C (compound 0.03 µM): 92.3% and 85%
viability, T/C (compound 0.0949 µM): 65.1% and 77.8%
viability, T/C (compound 0.3 µM): 72% and 68.5%
viability, T/C (compound 0.949 µM): 59.6% and 59.1%
viability, T/C (compound 3 µM): 39.2% and 26.2%

IC50 (curve of compound): 330 nM and 460 nM
SMILES: Cn1ncc(Cl)c1-c1cc(C(=O)NC(CN)Cc2cccc(F)c2)sc1Cl (stereo not given)
viability, T/C (compound 0.0316 µM): 82.3% and 88.3%
viability, T/C (compound 0.1 µM): 61.5% and 72.7%
viability, T/C (compound 0.316 µM): 55.5% and 61.2%
viability, T/C (compound 1 µM): 32.6% and 32.4%
viability, T/C (compound 3.16 µM): 15.9% and 11.8%
viability, T/C (compound 10 µM): 0.22% and 0.21%

IC50 (curve of compound): > 100 nM
SMILES: Cn1ncnc1[C@H]1c2n[nH]c(=O)c3cc(F)cc(c23)N[C@@H]1c1ccc(F)cc1
viability, T/C (compound 0.000316 µM): 121% and 90.6%
viability, T/C (compound 0.001 µM): 105% and 98.7%
viability, T/C (compound 0.00316 µM): 113% and 81%
viability, T/C (compound 0.01 µM): 103% and 93.2%
viability, T/C (compound 0.0316 µM): 84.2% and 83.9%
viability, T/C (compound 0.1 µM): 68.8% and 65.7%

IC50 (curve of compound): 83.2 nM and 123 nM
SMILES: CC(C)(C)c1cnc(CSc2cnc(NC(=O)C3CCNCC3)s2)o1
viability, T/C (compound 0.00949 µM): 90.5% and 95.1%
viability, T/C (compound 0.03 µM): 98.2% and 96.8%
viability, T/C (compound 0.0949 µM): 44.3% and 64.7%
viability, T/C (compound 0.3 µM): 0.55% and 0.39%
viability, T/C (compound 0.949 µM): 0.44% and 0.29%
viability, T/C (compound 3 µM): 0.51% and 0.39%
